Here are results for two compounds from publication PMC4303209, “A novel phosphatidylinositol 3-kinase (PI3K) inhibitor directs a potent FOXO-dependent, p53-independent cell cycle arrest phenotype characterized by the differential induction of a subset of FOXO-regulated genes” (Breast Cancer Research : BCR, 2014).

For series [1], the system named is serine 253-phosphorylated FOXO3a. Kind of series: Immunoblot of FOXO3a phosphorylation in MCF-7 or U2OS cells. In kind it is cell-based, human. Particulars: breast or osteosarcoma cancer cells; six hours post treatment. On the technique in general: A western blot detects proteins with antibodies after separation by electrophoresis.
Series [2] addresses panel of 24 representative kinases. Kind of series: Protein kinase panel screen (ProQinase). The class given is biochemical, human. As to conditions: 10 μM. The protocol: The protein kinase assays depicted in Figure S1 in Additional file 1 and Table S2 in Additional file 2 were performed at ProQinase, GmbH [18].
Our first objective was to analyse the biological activity of ETP-45658 including the physical and chemical properties of this compound compared to the reference pan-class I PI3K and mTOR inhibitor PI-103 [9]. We characterised the structure of each compound (Figure S1A in Additional file 1) and conducted the in silico analysis of each compound to measure their physiochemical properties (Figure S1B in Additional file 1). We determined the molecular polar surface area (PSA) of each compound, the partition coefficient, the distribution coefficient, compound solubility and the number of hydrogen donors and acceptors. […] Each indicated protein kinase activity was assayed following 10 μM treatment with either compound.
Supplementary file 13058_2014_482_MOESM1_ESM.jpeg: Additional file 1: Figure S1.: Comparative analysis of ETP-45658 and PI-103. (A) Chemical structure of ETP-45658 and PI-103. (B) Physiochemical properties of ETP-45658 and PI-103, including molecular polar surface area (PSA), partition coefficient (LogP), ACD clogD and solubility at two different pH values including Lipinsky’s Rule of Five (RoF) analysis. […] The kinase activity of PI3K was measured by using the commercial PI3-kinase HTRF™ assay mTOR activity by LanthaScreen™. […]

Series [3] relates to known toxicity pathways and canonical stress pathways. Kind of series: Ingenuity Pathway Tox Analysis of genome-wide array data. As to conditions: vs DMSO; MCF-7 array data. The class given is cell-based, human. From the text: While our results highlight that the primary cellular response is an anti-proliferative response (as opposed to an apoptotic response), for the development of ETP-45658 as a potential therapeutic, we questioned if ETP-45658 exposure was associated with any degree of toxicity, one of the most fundamental questions for any proposed therapeutic. We conducted a genome-wide analysis utilising an Ingenuity Pathway Analysis algorithm to address if any known toxicity pathway(s) were activated or induced after treatment with ETP-45658 (or by the reference compound PI-103). This included an extensive evaluation of the cardiac necrosis stress cascade, genes implicated in kidney failure, liver necrosis and liver hematomegaly. Furthermore, we also questioned if, on a genome-wide scale, any know canonical stress pathways were activated by ETP-45658 (or PI-103) treatment. This included the p53 pathway, PTEN aldosterone, ErbB2-ErbB3 and the ERK-MAPK signalling cascades.
Figure 2 Focused toxicity and safety assessment of ETP-45658.

SMILES strings stand for the structures.

As for `Cn1ncc2c(N3CCOCC3)nc(-c3cccc(O)c3)nc21` [ETP-45658], in series [1], the “serine 253-phosphorylated FOXO3a” value is on record as “almost complete absence”. Moreover, the “kinases significantly inhibited in panel of 24 kinases” value in series [2] was “only mutated BRAF was significantly inhibited”. Also, the “induction of known toxicity pathways (Ingenuity Pathway Tox Analysis)” value in series [3] is reported as “Neither ETP-45658 (nor PI-103) treatment significantly induced any known toxicity pathways”.
On to `Oc1cccc(-c2nc(N3CCOCC3)c3oc4ncccc4c3n2)c1` [PI-103], for which the “serine 253-phosphorylated FOXO3a” value in series [1] was “almost complete absence”. Besides, the “kinases significantly inhibited in panel of 24 kinases” value in series [2] is recorded as “only mutated BRAF was significantly inhibited”. Moreover, in series [3], the “induction of known toxicity pathways (Ingenuity Pathway Tox Analysis)” value is given as “Neither ETP-45658 (nor PI-103) treatment significantly induced any known toxicity pathways”.
